In article PMC6201103, “The Small-Compound Inhibitor K22 Displays Broad Antiviral Activity against Different Members of the Family Flaviviridae and Offers Potential as a Panviral Inhibitor” (Antimicrobial Agents and Chemotherapy, 2018):
pIC50: −log10 of the molar value. “And” between values parts separate entries of the source, which are not always exact repeats. Equal entries are not always repeated. Where two headings read alike, the source gives them in different places.

Legend:
ZIKV [1] = experiment: Combination treatment, ZIKV titers (TCID50) in Vero B4 cells; conditions: for combination index (CI): CompuSyn
Vero B4 cells = experiment: Proliferation/viability, MultiTox-Fluor multiplex cytotoxicity assay on Vero B4 cells; type: cell-based
Method: (§1) To evaluate the effect of K22 on cell viability, proliferation, as well as cytotoxicity, uninfected cells were treated with the compound at the concentrations specified above or with DMSO as a control. To determine the effect of K22 on cell viability, Vero cells were collected and labeled with the Fixable Aqua dead cell stain kit (Thermo Fisher Scientific) for 30 min on ice, before the cells were washed with cold PBS and fixed for flow cytometry analysis. As a positive control for cell death, cells were heated at 65°C for 30 min. The mean fluorescence intensity (MFI) was determined by flow cytometry analysis on a FACSCanto II flow cytometer (BD Bioscience) and evaluated using FlowJo (v.9.1) software. […] The compound was added at the concentrations indicated above, and cytotoxicity was determined at 24 and/or 48 h p.i. by determination of the absorbance at 490 nm using a plate reader (VersaMax [Molecular Devices, Wokingham, UK] or an EnSpire 2300 multilabel reader [PerkinElmer, Schwerzenbach, Switzerland]). Cell proliferation following compound treatment was determined using a MultiTox-Fluor multiplex cytotoxicity assay (catalog number G9200; Promega) according to the manufacturer's recommendations. The readout was performed using a multilabel reader (EnSpire 2300 multilabel reader; PerkinElmer) upon excitation at ∼400 nm and emission at ∼505 nm. […]

BVDV SuwaNcp [2] = experiment: BVDV SuwaNcp replication, qRT-PCR of viral RNA in BT cells; type: cell-based, bovine viral diarrhea virus
ZIKV [3] = experiment: Immunofluorescence analysis of E protein and dsRNA in ZIKV-infected Vero cells; conditions: 30 μM K22, 48 h p.i.
[4] = Proliferation, MultiTox-Fluor multiplex cytotoxicity assay on BT cells; type: cell-based, bovine; conditions: bovine, MultiTox-Fluor assay
Method: as §1

BT cells [5] = experiment: as above; type: cell-based, bovine
Method: as §1

USUV = experiment: microbe, parasite or virus in culture; type: cell-based, Usutu virus; conditions: for pIC50: Usutu virus, Vero, read-out: IC50, USUV infectivity
BVDV SuwaNcp [6] = experiment: microbe, parasite or virus in culture; type: cell-based, bovine viral diarrhea virus
WNV = WNV infectivity (TCID50 titration) and replication in K22-treated Vero cells; type: cell-based, West Nile virus; conditions: for pIC50: West Nile virus, MOI 0.1 TCID50/cell
Method: (§2) To test the effect of K22 on flavivirus, hepacivirus, and pestivirus infection, 8 × 10^4 Vero cells were seeded in 12-well dishes (flaviviruses), 5 × 10^4 Huh7-Lunet-N-hCD81-FLuc cells were seeded in 12-well dishes (hepacivirus), or 1 × 10^4 BT cells were seeded in 96-well dishes (pestivirus). At 1 day postseeding, cells were treated with different concentrations of K22 (diluted in DMSO at the concentrations indicated below) for 3 to 4 h and preincubated in 5% CO2 at 37°C. Cells were infected with different viruses at a multiplicity of infection (MOI) of 0.1 TCID50/cell for 1 h at 37°C. For HCV infection, cells were infected with JcR-2a or HCV Jc1 for 3 h at 37°C. Afterwards, cells were washed with prewarmed phosphate-buffered saline (PBS) solution, before cell culture medium supplemented with K22 or the DMSO control at each concentration was added, and incubated at 37°C in a 5% CO2 atmosphere. At 24 h and/or 48 h postinfection (p.i.), supernatants and cells were collected for further analysis.
(§3) Flavivirus replication and the cytopathic effect (CPE) were evaluated from collected cells. Cells in suspension were first labeled with the Fixable Aqua dead cell stain kit (Thermo Fisher Scientific, Waltham, MA, USA) for 30 min on ice, followed by washing with cold PBS. […] After washing, anti-mouse IgG2a conjugated with Alexa Fluor 647 (Thermo Fisher Scientific) was added for 15 min, and the cells were acquired on a FACSCanto II flow cytometer (BD Biosciences, Allschwil, Switzerland). FlowJo (v.9.1) software (TreeStar, Inc., Ashland, OR, USA) was used for analysis. Cell debris and doublets were excluded by electronic gating in forward/side scatter plots. Cell culture supernatants were collected at 24 and 48 h p.i., and the flavivirus titers in Vero cells were determined using the immunoperoxidase monolayer assay (IPMA). For that, supernatants 10-fold diluted in cell culture medium supplemented with 2% (vol/vol) FBS were incubated on Vero cells for 72 h at 37°C in a 5% CO2 atmosphere. At that point, cells were fixed in 4% (wt/vol) PFA for 10 min at room temperature, washed, and immunolabeled with anti-flavivirus group antigen antibody 4G2 diluted in 0.3% (wt/vol) saponin in PBS for 30 min at 37°C and then washed and incubated for another 30 min at 37°C with goat anti-mouse IgG conjugated with horseradish peroxidase (Dako), followed by incubation for 10 to 30 min at room temperature with 3-amino-9-ethylcarbazole (AEC) substrate (Sigma-Aldrich).

YFV = experiment: microbe, parasite or virus in culture; type: cell-based, yellow fever virus; conditions: for pIC50: Yellow fever virus, Vero, read-out: IC50, YFV infectivity
ZIKV [7] = experiment: ZIKV infectivity (TCID50 titration of supernatant) and replication (E protein flow cytometry) in K22-treated Vero cells; type: cell-based, Zika virus; conditions: for pIC50: Zika virus, Vero cells, MOI 0.1 TCID50/cell
Method: as §2, §3

ZIKV [8] = experiment: Direct effect on virus stability: ZIKV preincubated with K22, then titrated; type: cell-based, Zika virus; conditions: 2 h at room temperature, increasing K22 concentrations
Method: Shortly, the compound was diluted in DMSO to reach the desired concentrations (0, 5, 10, 20, 30, and 40 μM) and incubated with the cells for 2 h prior to infection, during infection, or after a period of 2, 6, 10, 14, 18, 22, or 24 h. […] Next, the inoculum was discarded, the cells were washed with prewarmed PBS, and culture medium was added to the wells. Additionally, in order to analyze the direct effect of K22 on virus stability, ZIKV in DMEM was incubated for 2 h at room temperature with the different K22 concentrations and titrated in 10-fold serial dilution on Vero cells for measurement of virus infectivity as described above.

[9] = Cytotoxicity, CytoTox 96 nonradioactive cytotoxicity assay on BT cells; type: cell-based, bovine; conditions: bovine, CytoTox 96 assay
Method: as §1

BT cells [10] = experiment: as above; type: cell-based, bovine; conditions: concentrations used for BVDV
Method: as §1

BVDV SuwaCp [11] = experiment: microbe, parasite or virus in culture; type: cell-based, bovine viral diarrhea virus
HCV [12] = experiment: HCV infectivity, supernatant transferred onto naive Huh7-Lunet-N-hCD81-FLuc cells, Renilla luciferase; type: cell-based, hepatitis C virus
WESSV = experiment: microbe, parasite or virus in culture; type: cell-based, Wesselsbron virus; conditions: for pIC50: Wesselsbron virus, Vero, read-out: IC50, WESSV infectivity
JEV = JEV infectivity (TCID50 titration) and replication in K22-treated Vero cells; type: cell-based, Japanese encephalitis virus; conditions: for pIC50: Japanese encephalitis virus, MOI 0.1 TCID50/cell
Method: as §2, §3

BVDV SuwaCp [13] = experiment: BVDV SuwaCp replication, qRT-PCR of viral RNA in BT cells; type: cell-based, bovine viral diarrhea virus
ZIKV [14] = experiment: Time-of-addition assay, ZIKV in Vero B4 cells; type: cell-based, Zika virus; conditions: K22 added pre- or postinfection, supernatant at 24 h p.i.
HCV [15] = experiment: HCV replication, JcR-2a Renilla luciferase reporter virus in Huh7-Lunet-N-hCD81-FLuc cells; type: cell-based, hepatitis C virus
Vero cells = experiment: Cytotoxicity on Vero cells (Fixable Aqua dead cell stain flow cytometry; CytoTox 96 assay); type: cell-based; conditions: concentrations of Fig. 1c, confirmed with commercial kit
Method: as §1

[16] = MTT cell proliferation assay; type: cell-based; conditions: human, Huh7-Lunet-N-hCD81-FLuc cells, 48 h posttreatment
[17] = system: Huh7-Lunet-N-hCD81-FLuc cells; experiment: MTT cell proliferation assay; type: cell-based
[18] = Bovine viral diarrhea virus isolates and strains, 48 h

For NC(=O)c1ncn([C@@H]2O[C@H](CO)[C@@H](O)[C@H]2O)n1 [RBV, ribavirin, reference compound], the “effect of single treatment on ZIKV viral titers” value (ZIKV [1]; 10 μg/ml RBV, 24 h p.i., Vero B4 cells) was “moderately reduced the viral titers” and the “effect of single treatment on ZIKV viral titers” value (ZIKV [1]; 100 μg/ml and 1,000 μg/ml RBV, 24 h p.i., Vero B4 cells) was “significantly reduced viral titers”.
With IFN-α the “effect of IFN-α on cell viability” value (Vero B4 cells) was “no effect on cell viability” and the “IFN-α doses effective against ZIKV” value (ZIKV [1]; single treatment, 24 h p.i., Vero B4 cells) was no less than 10 IU.
With O=C(N/C(=C\c1ccccc1)C(=O)N1CCC(O)(c2ccc(Br)cc2)CC1)c1ccccc1 [K22, (Z)-N-{3-[4-(4-bromophenyl)-4-hydroxypiperidin-1-yl]-3-oxo-1-phenylprop-1-en-2-yl} benzamide] the pIC50 (BVDV SuwaNcp [2]; [18]) was 4.46, the “K22 concentrations necessary to significantly reduce viral replication of BVDV SuwaNcp” value (BVDV SuwaNcp [2]; qRT-PCR, BT cells) was no less than 40 µM and the “viral E protein and dsRNA markers of infection” value (ZIKV [3]) was “severely reduced”. For the same molecule, the CC50 [4] was greater than 350 µM, the “K22 concentrations affecting cell proliferation” value (BT cells [5]) was no less than 30 µM and the “K22 concentrations that mildly affected cell proliferation” value (Vero B4 cells) was no less than 30 µM. For the same molecule, the pIC50 (USUV; 24 h) was 5.05, the pIC50 (USUV; 48 h) was roughly 5.00 and the “K22 concentrations necessary to significantly inhibit USUV” value (USUV; Vero cells) was no less than 20 µM. The “SI (selectivity index), BVDV SuwaNcp” value (BVDV SuwaNcp [6]) was greater than 16.4, the “K22 concentration necessary to significantly reduce infectivity of BVDV SuwaNcp” value (BVDV SuwaNcp [6]; BT cells) was no less than 40 µM and the pIC50 (BVDV SuwaNcp [6]; Bovine viral diarrhea virus isolates and strains, read-out: IC50 for infectivity, BVDV SuwaNcp) was 4.67. For the same molecule, the “SI (selectivity index), WNV” value (WNV; 24 h p.i.) was 32.3, the “SI (selectivity index), WNV” value (WNV; 48 h p.i.) was 10.0 and the “K22 concentrations significantly reducing WNV replication and infectivity” value (WNV; Vero cells) was no less than 10 µM. For the same molecule, the pIC50 (WNV; 24 h p.i., Vero cells) was 5.55, the pIC50 (WNV; 48 h p.i., Vero cells) was 5.08 and the “K22 concentrations reducing YFV replication and infectivity” value (YFV) was no less than 5 µM. For the same molecule, the “SI (selectivity index), YFV” value (YFV) was 24.3 and 36.7, the pIC50 (YFV; 24 h) was 5.43 and the pIC50 (YFV; 48 h) was 5.64. The “SI (selectivity index), ZIKV” value (ZIKV [7]; 24 h p.i.) was 35.6, the “SI (selectivity index), ZIKV” value (ZIKV [7]; 48 h p.i.) was 39.9 and the pIC50 (ZIKV [7]; 24 h p.i.) was 5.60. The pIC50 (ZIKV [7]; 48 h p.i.) was 5.68, the “reduction of ZIKV viral titers” value (ZIKV [7]; higher concentrations of K22, Vero cells) was “up to 4 orders of magnitude” and the “effect of preincubation of ZIKV with K22 on infectivity” value (ZIKV [8]) was “does not affect ZIKV infectivity”. The CC50 [9] was greater than 1000 µM, the “cellular toxicity of K22” value (BT cells [10]) was “no cellular toxicity” and the “SI (selectivity index), BVDV SuwaCp” value (BVDV SuwaCp [11]) was greater than 24.6. For the same molecule, the pIC50 (BVDV SuwaCp [11]; Bovine viral diarrhea virus isolates and strains, read-out: IC50 for infectivity, BVDV SuwaCp) was 4.85, the “SI (selectivity index), HCV” value (HCV [12]) was 9.7 and the pIC50 (HCV [12]; Hepatitis C virus, 72 h, read-out: IC50 for infectivity, HCV) was 5.66. For the same molecule, the “SI (selectivity index), WESSV” value (WESSV) was 15.2 and 12.5, the “K22 concentrations necessary to significantly inhibit WESSV” value (WESSV; Vero cells) was no less than 20 µM and the pIC50 (WESSV; 24 h) was 5.23. The pIC50 (WESSV; 48 h) was 5.17, the “SI (selectivity index), JEV” value (JEV; 24 h p.i.) was 193.9 and the “SI (selectivity index), JEV” value (JEV; 48 h p.i.) was 19.1. For the same molecule, the pIC50 (JEV; 24 h p.i., Vero cells) was 6.30, the pIC50 (JEV; 48 h p.i., Vero cells) was 5.36 and the “K22 concentrations reducing JEV replication and infectivity” value (JEV; dose-dependent, Vero cells) was no less than 5 µM. The “reduction of ZIKV viral titers” value (ZIKV [1]; 5 to 10 μM K22 combined with ≥10 IU IFN-α, 24 h p.i., no further impact on cell proliferation) was “at least 3 orders of magnitude”, the “combination index (CI)” value (ZIKV [1]; K22 10 to 30 μM with 10 IU IFN-α, slight synergism) was less than 1 and the “combination index (CI)” value (ZIKV [1]; K22 and RBV, concentrations causing only partial inhibition, additive effect) was “about 1”. For the same molecule, the “effect of combination on antiviral effect of K22” value (ZIKV [1]; K22 with either 0.1 or 1 μg/ml RBV) was “did not improve the antiviral effect of K22”, the pIC50 (BVDV SuwaCp [13]; [18]) was 4.81 and the “K22 concentrations necessary to significantly reduce viral replication of BVDV SuwaCp” value (BVDV SuwaCp [13]; qRT-PCR, BT cells) was no less than 20 µM. For the same molecule, the “antiviral activity by time of addition” value (ZIKV [14]) was “displayed antiviral activity when added at several hours postinfection”, the “CC50 relative to IC50 (replication), HCV” value (HCV [15]; CC50 21.3 μM vs IC50 7.0 μM) was 3 fold and the pIC50 (HCV [15]; Hepatitis C virus, 48 h, read-out: IC50 for replication, HCV) was 5.15. The “K22 concentrations significantly reducing HCV replication as well as infectivity” value (HCV [15]; {}) was no less than 20 µM, the “cytotoxic effect of K22” value (Vero cells) was “no cytotoxic effect” and the CC50 at 48 h [16] was 21.3 µM. The “K22 concentrations affecting the cells used for infection” value [17] was no less than 20 µM.
